Test results from patent US6436963B1 (priority 1998, dated 2002).

Experiments:
Type in all cases: in vivo
Erysiphe graminis = test: Powdery Mildew of Wheat (ERYSGT), protectant spray test on wheat seedlings; conditions: wheat (cultivar Monon), sprayed to run off at 100 ppm, inoculated after 24 hours
Leptosphaeria nodorum = test: Glume Blotch of Wheat (LEPTNO), protectant spray test on wheat seedlings; conditions: wheat (cultivar Monon), sprayed to run off at 100 ppm, inoculated after 24 hours
Phytophthora infestans = conditions: tomatoes (cultivar Rutgers), sprayed to run off at 100 ppm, inoculated after 24 hours
Puccinia recondita = test: Brown Rust (PUCCRT), protectant spray test on wheat seedlings; conditions: wheat (cultivar Monon), sprayed to run off at 100 ppm, inoculated after 24 hours

Row | SMILES | ERYSGT control of plant disease (Erysiphe graminis) | LEPTNO control of plant disease (Leptosphaeria nodorum) | PHYTIN control of plant disease (Phytophthora infestans) | PUCCRT control of plant disease (Puccinia recondita)
1 | CNC(=O)C(=NOC)c1ccccc1COc1ncc(C(O)c2ccc(C)cc2C)cc1Cl (racemic) [Example 6] | ++ (++ = 75-100% control of plant disease) | − (− = 0-24% control of plant disease) | ++ (++ = 75-100% control of plant disease) | ++ (++ = 75-100% control of plant disease)
2 | CCOCC(=O)OC(c1ccccc1)c1cnc(OCc2ccccc2C(=NOC)C(=O)NC)c(Cl)c1 (racemic) [Example 63] | ++ (++ = 75-100% control of plant disease) | ++ (++ = 75-100% control of plant disease) | ++ (++ = 75-100% control of plant disease) | ++ (++ = 75-100% control of plant disease)
3 | CCCC(=O)OC(c1ccc(F)cc1)c1cnc(OCc2ccccc2C(=NOC)C(=O)NC)c(Cl)c1 (racemic) [Example 50] | ++ (++ = 75-100% control of plant disease) | ++ (++ = 75-100% control of plant disease) | ++ (++ = 75-100% control of plant disease) | ++ (++ = 75-100% control of plant disease)
4 | CNC(=O)C(=NOC)c1ccccc1COc1ncc(C(OC(=O)c2ccccc2)c2ccccc2)cc1Cl (racemic) [Example 29] | + (+ = 25-74% control of plant disease) | ++ (++ = 75-100% control of plant disease) | + (+ = 25-74% control of plant disease) | ++ (++ = 75-100% control of plant disease)
5 | CNC(=O)C(=NOC)c1ccccc1COc1ncc(C(OC(C)(C)C)c2ccccc2)cc1Cl (stereo not shown) [Example 119] | ++ (++ = 75-100% control of plant disease) | ++ (++ = 75-100% control of plant disease) | ++ (++ = 75-100% control of plant disease) | ++ (++ = 75-100% control of plant disease)
6 | CCC(=O)OC(c1ccc(F)cc1)c1cnc(OCc2ccccc2C(=NOC)C(=O)NC)c(Cl)c1 (racemic) [Example 48] | ++ (++ = 75-100% control of plant disease) | ++ (++ = 75-100% control of plant disease) | ++ (++ = 75-100% control of plant disease) | ++ (++ = 75-100% control of plant disease)
7 | CNC(=O)C(=NOC)c1ccccc1COc1ncc(C(O)C2CCCCC2)cc1Cl (stereo not shown) [Example 87] | ++ (++ = 75-100% control of plant disease) | ++ (++ = 75-100% control of plant disease) | ++ (++ = 75-100% control of plant disease) | ++ (++ = 75-100% control of plant disease)
8 | CNC(=O)C(=NOC)c1ccccc1COc1ncc(C(O)c2cccc(C)c2)cc1Cl (stereo not shown) [Example 84] | ++ (++ = 75-100% control of plant disease) | − (− = 0-24% control of plant disease) | ++ (++ = 75-100% control of plant disease) | ++ (++ = 75-100% control of plant disease)
9 | CNC(=O)C(=NOC)c1ccccc1COc1ncc(C(O)c2ccsc2)cc1Cl (stereo not shown) [Example 109] | ++ (++ = 75-100% control of plant disease) | ++ (++ = 75-100% control of plant disease) | ++ (++ = 75-100% control of plant disease) | ++ (++ = 75-100% control of plant disease)
10 | CNC(=O)C(=NOC)c1ccccc1COc1ncc(C(O)c2ccccn2)cc1Cl (stereo not shown) [Example 105] | ++ (++ = 75-100% control of plant disease) | ++ (++ = 75-100% control of plant disease) | ++ (++ = 75-100% control of plant disease) | ++ (++ = 75-100% control of plant disease)
11 | CNC(=O)C(=NOC)c1ccccc1COc1ncc(C(OC(C)=O)c2ccccc2C(F)(F)F)cc1Cl (stereo not shown) [Example 88] | ++ (++ = 75-100% control of plant disease) | ++ (++ = 75-100% control of plant disease) | ++ (++ = 75-100% control of plant disease) | ++ (++ = 75-100% control of plant disease)
12 | CCCOC(c1ccccc1)c1cnc(OCc2ccccc2C(=NOC)C(=O)NC)c(Cl)c1 (stereo not shown) [Example 120] | ++ (++ = 75-100% control of plant disease) | + (+ = 25-74% control of plant disease) | + (+ = 25-74% control of plant disease) | − (− = 0-24% control of plant disease)
13 | CNC(=O)C(=NOC)c1ccccc1COc1ncc(C(OC(C)=O)c2ccccc2)cc1Cl (racemic) [Example 28] | − (− = 0-24% control of plant disease) | ++ (++ = 75-100% control of plant disease) | − (− = 0-24% control of plant disease) | ++ (++ = 75-100% control of plant disease)
14 | CNC(=O)C(=NOC)c1ccccc1COc1ncc(C(OC(C)=O)c2ccc(F)cc2)cc1Cl (racemic) [Example 46] | ++ (++ = 75-100% control of plant disease) | ++ (++ = 75-100% control of plant disease) | − (− = 0-24% control of plant disease) | − (− = 0-24% control of plant disease)
15 | CCC(=O)OC(c1ccccc1)c1cnc(OCc2ccccc2C(=NOC)C(=O)NC)c(Cl)c1 (racemic) [Example 36] | + (+ = 25-74% control of plant disease) | ++ (++ = 75-100% control of plant disease) | ++ (++ = 75-100% control of plant disease) | ++ (++ = 75-100% control of plant disease)
16 | CCCCCOC(C)c1cnc(OCc2ccccc2C(=NOC)C(=O)NC)c(Cl)c1 (racemic) [Example 41] | ++ (++ = 75-100% control of plant disease) | ++ (++ = 75-100% control of plant disease) | − (− = 0-24% control of plant disease) | ++ (++ = 75-100% control of plant disease)
17 | CNC(=O)C(=NOC)c1ccccc1COc1ncc(COCc2ccc(OC)cc2)cc1Cl [Example 25] | ++ (++ = 75-100% control of plant disease) | ++ (++ = 75-100% control of plant disease) | + (+ = 25-74% control of plant disease) | ++ (++ = 75-100% control of plant disease)
18 | CNC(=O)C(=NOC)c1ccccc1COc1ncc(C(OC(C)=O)c2ccc(OC)cc2)cc1Cl (stereo not shown) [Example 95] | ++ (++ = 75-100% control of plant disease) | ++ (++ = 75-100% control of plant disease) | ++ (++ = 75-100% control of plant disease) | ++ (++ = 75-100% control of plant disease)
19 | CNC(=O)C(=NOC)c1ccccc1COc1ncc(C2(c3ccccc3)COC(C)(C)O2)cc1Cl (stereo not shown) [Example 123] | ++ (++ = 75-100% control of plant disease) | ++ (++ = 75-100% control of plant disease) | ++ (++ = 75-100% control of plant disease) | ++ (++ = 75-100% control of plant disease)
20 | CNC(=O)C(=NOC)c1ccccc1COc1ncc(C(O)C(C)C)cc1Cl (racemic) [Example 43] | ++ (++ = 75-100% control of plant disease) | + (+ = 25-74% control of plant disease) | ++ (++ = 75-100% control of plant disease) | ++ (++ = 75-100% control of plant disease)
21 | CNC(=O)C(=NOC)c1ccccc1COc1ncc(C(OC(C)=O)c2ccc(C)cc2C)cc1Cl (stereo not shown) [Example 92] | ++ (++ = 75-100% control of plant disease) | ++ (++ = 75-100% control of plant disease) | ++ (++ = 75-100% control of plant disease) | ++ (++ = 75-100% control of plant disease)
22 | CNC(=O)C(=NOC)c1ccccc1COc1ncc(C(C)OCc2cccc(OC)c2)cc1Cl (racemic) [Example 62] | ++ (++ = 75-100% control of plant disease) | ++ (++ = 75-100% control of plant disease) | − (− = 0-24% control of plant disease) | ++ (++ = 75-100% control of plant disease)
23 | CNC(=O)C(=NOC)c1ccccc1COc1ncc(C(O)c2ccc(Cl)cc2)cc1Cl (racemic) [Example 9] | ++ (++ = 75-100% control of plant disease) | ++ (++ = 75-100% control of plant disease) | ++ (++ = 75-100% control of plant disease) | ++ (++ = 75-100% control of plant disease)
24 | CNC(=O)C(=NOC)c1ccccc1COc1ncc(C(OC(C)=O)c2cccc(Cl)c2)cc1Cl (stereo not shown) [Example 75] | ++ (++ = 75-100% control of plant disease) | ++ (++ = 75-100% control of plant disease) | ++ (++ = 75-100% control of plant disease) | ++ (++ = 75-100% control of plant disease)
25 | CCOC(C)(c1ccccc1)c1cnc(OCc2ccccc2C(=NOC)C(=O)NC)c(Cl)c1 (stereo not shown) [Example 122] | ++ (++ = 75-100% control of plant disease) |  | − (− = 0-24% control of plant disease) | 
26 | CNC(=O)C(=NOC)c1ccccc1COc1ncc(C(OC(C)=O)c2ccsc2)cc1Cl (stereo not shown) [Example 121] | ++ (++ = 75-100% control of plant disease) |  | ++ (++ = 75-100% control of plant disease) | 
